Experimental data taken from patent US8431169B2, “Nutraceutical composition and methods of use” (Dacy Tech Pty Ltd, priority 2007, dated 2013).

Key:
[1] = system: aggrecan; experiment: aggrecan RNA expression in cartilage explants (real time RT-PCR); format: cell-based, pig; conditions: indosim 0.02 mg/mL
Procedure: Front legs of market weight pigs (5-7 months old, 200-250 lbs) were obtained from a local abattoir. Legs were chilled on crushed ice until dissection. Using aseptic technique, the intercarpal joint was opened and the cartilage surfaces exposed. A 4 mm dermal biopsy punch was used to take explants (˜0.5 mm thickness; 11-15 mg/explant) of healthy cartilage from the weight-bearing region of both articulating surfaces of the intercarpal joint. Cartilage pieces were washed 3 times in Dubelco's Modified Eagle Medium (DMEM) supplemented with NaHCO3. Two cartilage discs were placed into each well of 24-well tissue culture plates containing DMEM supplemented with amino acids, sodium selenite, manganese sulfate, NaHCO3 and ascorbic acid (TCM—tissue culture medium). Plates were incubated at 37° C., 7% CO2 in a humidified atmosphere for up to 144 h. Every 24 h media was completely aspirated into 1 mL microcentrifuge tubes and immediately replaced with control, conditioned and/or stimulated media (described below) before being returned to the incubator. The collected media was stored at −80° C. until analysis. Cartilage was harvested at the end of each experiment with one explant per well stained for cytotoxicity and the remaining cartilage immediately frozen at −80° C. […]
SEQsim was prepared as explained above. […] Media was analyzed for [PGE2], [GAG], and [NO]. […]

[2] = system: IL-1 stimulated and unstimulated cartilage explants; experiment: nitric oxide (nitrite) in media from cartilage explants; format: cell-based, pig; conditions: IL-1-stimulated explants; indosim
Procedure: Simulated digests were prepared using SEQ (0.85 g), BO [2.5 mL (0.85 g)] and indomethacin (0.074 g—a positive anti-inflammatory control). Each test substance was individually suspended in 35 mL of simulated gastric fluid (37 mM NaCl, 0.03N HCl, 3.2 mg/mL pepsin), and shaken at 37° C. for 2 h (Rininger et al., 2000). After this, solution acidity was neutralized by adding an equinormal volume of 2.2 N NaOH (1.15 mL). To this was added 36.15 mL of simulated intestinal fluid (Rininger et al., 2000−30 mM K2HPO4, 160 mM NaH2PO4; 20 mg/mL pancreatin; pH adjusted to 7.4) and the resultant mixture shaken in a 37° C. incubator for a further 2 h. A “blank” was prepared using identical methodology but without including any test substance.
The supernatant was decanted and centrifuged a second time at 3,000×g for 15 min at 4° C. […]
Synovial fluid [NO]: Nitrite (NO2^−), a stable oxidation product of NO, was analyzed by the Griess reaction (Fenton et al., 2002). […] Sulfanilamide (0.01 g/mL) and N-(1)-Napthylethylene diamine hydrochloride (1 mg/mL) dissolved in phosphoric acid (0.085 g/L) was added to all wells, and absorbance was read within 5 minutes on a Victor 3 microplate reader at 530 nm. Sample absorbance was compared to a sodium nitrite standard.

[3] = system: iNOS; experiment: iNOS expression in IL-1-stimulated cartilage explants; format: cell-based, pig; conditions: IL-1-stimulated explants
Procedure: Simulated digests were prepared using SEQ (0.85 g), BO [2.5 mL (0.85 g)] and indomethacin (0.074 g—a positive anti-inflammatory control). […]

[4] = system: IL-1 stimulated and unstimulated cartilage explants; experiment: GAG release into media by cartilage explants (1,9-DMB assay); format: cell-based, pig; conditions: indosim 0.02 mg/mL
Procedure: Front legs of market weight pigs (5-7 months old, 200-250 lbs) were obtained from a local abattoir. Legs were chilled on crushed ice until dissection. Using aseptic technique, the intercarpal joint was opened and the cartilage surfaces exposed. A 4 mm dermal biopsy punch was used to take explants ( 0.5 mm thickness; 11-15 mg/explant) of healthy cartilage from the weight-bearing region of both articulating surfaces of the intercarpal joint. Cartilage pieces were washed 3 times in Dubelco's Modified Eagle Medium (DMEM) supplemented with NaHCO3. Two cartilage discs were placed into each well of 24-well tissue culture plates containing DMEM supplemented with amino acids, sodium selenite, manganese sulfate, NaHCO3 and ascorbic acid (TCM-tissue culture medium). Plates were incubated at 37° C., 7% CO2 in a humidified atmosphere for up to 144 h. Every 24 h media was completely aspirated into 1 mL microcentrifuge tubes and immediately replaced with control, conditioned and/or stimulated media (described below) before being returned to the incubator. […] Media was analyzed for [PGE2], [GAG], and [NO]. […] Media GAG concentration was determined using a 1,9-DMB spectrophotometric assay (Chandrasekhar et al., 1987). […] Plates were incubated in the dark for 10 minutes, and absorbance was read on a Victor 3 microplate reader at 530 nm. Sample absorbance was compared to that of a chondroitin sulfate standard. […]

[5] = system: IL-1-stimulated and unstimulated cartilage explants; experiment: cell viability staining of cartilage explants (C-AM / EthD-1); format: cell-based, pig; conditions: indosim 0.02 mg/mL
Procedure: Front legs of market weight pigs (5-7 months old, 200-250 lbs) were obtained from a local abattoir. Legs were chilled on crushed ice until dissection. Using aseptic technique, the intercarpal joint was opened and the cartilage surfaces exposed. A 4 mm dermal biopsy punch was used to take explants ( 0.5 mm thickness; 11-15 mg/explant) of healthy cartilage from the weight-bearing region of both articulating surfaces of the intercarpal joint. Cartilage pieces were washed 3 times in Dubelco's Modified Eagle Medium (DMEM) supplemented with NaHCO3. Two cartilage discs were placed into each well of 24-well tissue culture plates containing DMEM supplemented with amino acids, sodium selenite, manganese sulfate, NaHCO3 and ascorbic acid (TCM-tissue culture medium). Plates were incubated at 37° C., 7% CO2 in a humidified atmosphere for up to 144 h. Every 24 h media was completely aspirated into 1 mL microcentrifuge tubes and immediately replaced with control, conditioned and/or stimulated media (described below) before being returned to the incubator. […] Media was analyzed for [PGE2], [GAG], and [NO]. […] Cell viability was determined using a commercially available viability staining kit (Invitrogen; Burlington ON) (Pearson et al., 2007). […] The plate was read from the bottom of each well using 10 horizontal steps, 3 vertical steps, and a 0.1 mm displacement.

[6] = system: Normal Human Articular Chondrocytes (NHAC-knee); experiment: BrdU cell proliferation assay; format: cell-based
Procedure: Clonetics® Normal Human Articular Chondrocytes (NHAC-knee) obtained from Lonza Australia Pty Ltd, were grown in chondrocyte growth medium (CGM) supplemented with growth factors. NHACs were used at passage #3-4 for all experiments.
The following assays were carried out using the protocols as per kit instructions:
Each of the above fractions was then individually assayed again for viability/cytotoxicity, cell growth and proliferation, apoptosis/necrosis using the tests as previously mentioned.

Row | Compound | aggrecan increase after IL-1 stimulation ([1]; IL-1-stimulated (10 ng/mL) explants) | increase in aggrecan expression ([1]; unstimulated explants) [fold] | IL-1-mediated NO production [2] | IL-1-mediated iNOS expression [3] | media [GAG] compared with stimulated controls ([4]; IL-1-stimulated explants, p=0.1) | media [GAG] compared with unstimulated controls ([4]; unstimulated explants) | cell viability ([5]; IL-1-stimulated explants) | cell viability ([5]; unstimulated explants) | NHAC proliferation (BrdU) [6]
1 | COc1ccc2c(c1)c(CC(=O)O)c(C)n2C(=O)c1ccc(Cl)cc1 [indosim, indomethacin] | completely abolished | 58 | increase | augmenting effect | elevated compared with stimulated controls over the duration of the experiment, but not significantly | significantly higher | no significant effect | no significant effect | –
2 | CCCCCCCCC=CCCCCCCCC(=O)O [Fraction F1.4, 9-Octadecenoic acid] | – | – | – | – | – | – | – | – | most active
